EC50 data for 20 compounds are collected here from US11820773B2, “Tricyclic compounds” (ALIGOS THERAPEUTICS, INC., priority 2020, dated 2023).

The assay has as its system HBV. The assay is described as follows: HBV-DNA antiviral assay using HepG2.117 cells (intracellular HBV DNA by qPCR). Type of assay: cell-based, genotype D HBV. Particulars: Hepatitis B virus, 72 h, HBV DNA inhibition, 3 days incubation, 2% DMSO. Summed up: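 HepG2.117 cells (stable genotype D HBV, Tet-off) seeded without doxycycline, treated next day with 9-point 4-fold dilutions in 2% DMSO for 3 days at 37° C. Intracellular HBV DNA quantified by qPCR against a standard curve; viability by CellTiter-Glo ATP. EC50, EC90, CC50 from variable-slope dose-response fits versus DMSO control.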
Broadly, the EC50 is the midpoint of the concentration-response curve. A high value points to weaker potency. Consider `C[C@H]1Cc2c(n3ncc(Cc4ccccc4)c3n(-c3ccc(-c4n[nH]c(=O)n4C)cc3)c2=O)CN1C(=O)c1ccc(Br)c(C(F)(F)F)c1` (stereo in doubt) [Compound 58b, rac-(11S)-5-benzyl-12-[4-bromo-3-(trifluoromethyl)benzoyl]-11-methyl-7-[4-(4-methyl-5-oxo-1H-1,2,4-triazol-3-yl)phenyl]-2,3,7,12-tetrazatricyclo[7.4.0.0^2,6]trideca-1(9),3,5-trien-8-one], for which the EC50 was under 50 nM. For `Cc1nnc(-c2ccc(-n3c(=O)c4c(n5ncc(CC(C)C)c35)CN(C(=O)c3ccc(Br)c(C(F)(F)F)c3)[C@H](C)C4)cc2)[nH]1` (stereo in doubt) [Compound 59a, rac-(11R)-12-[4-bromo-3-(trifluoromethyl)benzoyl]-5-isobutyl-11-methyl-7-[4-(5-methyl-4H-1,2,4-triazol-3-yl)phenyl]-2,3,7,12-tetrazatricyclo[7.4.0.0^2,6]trideca-1(9),3,5-trien-8-one], the EC50 was under 50 nM. The compound `Cc1nnc(-c2ccc(-n3c(=O)c4c(n5ncc(CC(C)C)c35)CN(C(=O)c3ccc(Br)c(C(F)(F)F)c3)[C@@H](C)C4)cc2)[nH]1` (stereo in doubt) [Compound 59b, rac-(11S)-12-[4-bromo-3-(trifluoromethyl)benzoyl]-5-isobutyl-11-methyl-7-[4-(5-methyl-4H-1,2,4-triazol-3-yl)phenyl]-2,3,7,12-tetrazatricyclo[7.4.0.0^2,6]trideca-1(9),3,5-trien-8-one] came in with an EC50 of 50 to 500 nM. To `CNc1n[nH]c2cc(-n3c(=O)c4c(n5ncc(CC(C)C)c35)CN(C(=O)c3ccc(Br)c(C(F)(F)F)c3)[C@H](C)C4)ccc12` (stereo in doubt) [Compound 61a, rac-(11R)-12-[4-bromo-3-(trifluoromethyl)benzoyl]-5-isobutyl-11-methyl-7-[3-(methylamino)-1H-indazol-6-yl]-2,3,7,12-tetrazatricyclo[7.4.0.0^2,6]trideca-1(9),3,5-trien-8-one] belongs under 50 nM; to `CNc1n[nH]c2cc(-n3c(=O)c4c(n5ncc(CC(C)C)c35)CN(C(=O)c3ccc(Br)c(C(F)(F)F)c3)[C@@H](C)C4)ccc12` (stereo in doubt) [Compound 61b, rac-(11S)-12-[4-bromo-3-(trifluoromethyl)benzoyl]-5-isobutyl-11-methyl-7-[3-(methylamino)-1H-indazol-6-yl]-2,3,7,12-tetrazatricyclo[7.4.0.0^2,6]trideca-1(9),3,5-trien-8-one], 50 to 500 nM. To `Cc1nn[nH]c1-c1ccc(-n2c(=O)c3c(n4ncc(CC(C)C)c24)CN(C(=O)c2ccc(Br)c(C(F)(F)F)c2)[C@H](C)C3)cc1` (stereo in doubt) [Compound 62a, rac-(11R)-12-[4-bromo-3-(trifluoromethyl)benzoyl]-5-isobutyl-11-methyl-7-[4-(4-methyl-1H-triazol-5-yl)phenyl]-2,3,7,12-tetrazatricyclo[7.4.0.0^2,6]trideca-1(9),3,5-trien-8-one] belongs under 50 nM. To `Cc1nn[nH]c1-c1ccc(-n2c(=O)c3c(n4ncc(CC(C)C)c24)CN(C(=O)c2ccc(Br)c(C(F)(F)F)c2)[C@@H](C)C3)cc1` (stereo in doubt) [Compound 62b, rac-(11S)-12-[4-bromo-3-(trifluoromethyl)benzoyl]-5-isobutyl-11-methyl-7-[4-(4-methyl-1H-triazol-5-yl)phenyl]-2,3,7,12-tetrazatricyclo[7.4.0.0^2,6]trideca-1(9),3,5-trien-8-one] belongs 50 to 500 nM; to `Cc1nn[nH]c1-c1ccc(-n2c(=O)c3c(n4ncc(CC(C)C)c24)CN(C(=O)c2ccc(Cl)c(C(F)(F)F)c2)[C@H](C)C3)cc1` (stereo in doubt) [Compound 63a, rac-(11R)-12-[4-chloro-3-(trifluoromethyl)benzoyl]-5-isobutyl-11-methyl-7-[4-(4-methyl-1H-triazol-5-yl)phenyl]-2,3,7,12-tetrazatricyclo[7.4.0.0^2,6]trideca-1(9),3,5-trien-8-one], under 50 nM; to `Cc1nn[nH]c1-c1ccc(-n2c(=O)c3c(n4ncc(CC(C)C)c24)CN(C(=O)c2ccc(Cl)c(C(F)(F)F)c2)[C@@H](C)C3)cc1` (stereo in doubt) [Compound 63b, rac-(11S)-12-[4-chloro-3-(trifluoromethyl)benzoyl]-5-isobutyl-11-methyl-7-[4-(4-methyl-1H-triazol-5-yl)phenyl]-2,3,7,12-tetrazatricyclo[7.4.0.0^2,6]trideca-1(9),3,5-trien-8-one], 500 to 5000 nM. `Cc1nn[nH]c1-c1ccc(-n2c(=O)c3c(n4ncc(CC(C)C)c24)CN(C(=O)c2ccc(Br)c(Cl)c2)[C@H](C)C3)cc1` (stereo in doubt) [Compound 64a, rac-(11R)-12-(4-bromo-3-chloro-benzoyl)-5-isobutyl-11-methyl-7-[4-(4-methyl-1H-triazol-5-yl)phenyl]-2,3,7,12-tetrazatricyclo[7.4.0.0^2,6]trideca-1(9),3,5-trien-8-one] yielded an EC50 of under 50 nM. `Cc1nn[nH]c1-c1ccc(-n2c(=O)c3c(n4ncc(CC(C)C)c24)CN(C(=O)c2ccc(Br)c(Cl)c2)[C@@H](C)C3)cc1` (stereo in doubt) [Compound 64b, rac-(11S)-12-(4-bromo-3-chloro-benzoyl)-5-isobutyl-11-methyl-7-[4-(4-methyl-1H-triazol-5-yl)phenyl]-2,3,7,12-tetrazatricyclo[7.4.0.0^2,6]trideca-1(9),3,5-trien-8-one] had an EC50 of 50 to 500 nM. `Cc1nnc(-c2ccc(-n3c(=O)c4c(n5ncc(CC(C)C)c35)CN(C(=O)c3ccc(Cl)c(C(F)(F)F)c3)[C@H](C)C4)cc2)[nH]1` (stereo in doubt) [Compound 65a, rac-(11R)-12-[4-chloro-3-(trifluoromethyl)benzoyl]-5-isobutyl-11-methyl-7-[4-(5-methyl-4H-1,2,4-triazol-3-yl)phenyl]-2,3,7,12-tetrazatricyclo[7.4.0.0^2,6]trideca-1(9),3,5-trien-8-one] registered an EC50 of under 50 nM.

On to `Cc1nnc(-c2ccc(-n3c(=O)c4c(n5ncc(CC(C)C)c35)CN(C(=O)c3ccc(Cl)c(C(F)(F)F)c3)[C@@H](C)C4)cc2)[nH]1` (stereo in doubt) [Compound 65b, rac-(11S)-12-[4-chloro-3-(trifluoromethyl)benzoyl]-5-isobutyl-11-methyl-7-[4-(5-methyl-4H-1,2,4-triazol-3-yl)phenyl]-2,3,7,12-tetrazatricyclo[7.4.0.0^2,6]trideca-1(9),3,5-trien-8-one], for which the EC50 lay within 500 to 5000 nM. `Cc1nnc(-c2ccc(-n3c(=O)c4c(n5ncc(CC(C)C)c35)CN(C(=O)c3ccc(Br)c(Cl)c3)[C@H](C)C4)cc2)[nH]1` (stereo in doubt) [Compound 66a, rac-(11R)-12-(4-bromo-3-chloro-benzoyl)-5-isobutyl-11-methyl-7-[4-(5-methyl-4H-1,2,4-triazol-3-yl)phenyl]-2,3,7,12-tetrazatricyclo[7.4.0.0^2,6]trideca-1(9),3,5-trien-8-one]: the EC50 is under 50 nM. To `Cc1nnc(-c2ccc(-n3c(=O)c4c(n5ncc(CC(C)C)c35)CN(C(=O)c3ccc(Br)c(Cl)c3)[C@@H](C)C4)cc2)[nH]1` (stereo in doubt) [Compound 66b, rac-(11S)-12-(4-bromo-3-chloro-benzoyl)-5-isobutyl-11-methyl-7-[4-(5-methyl-4H-1,2,4-triazol-3-yl)phenyl]-2,3,7,12-tetrazatricyclo[7.4.0.0^2,6]trideca-1(9),3,5-trien-8-one] belongs 50 to 500 nM; to `CC(C)Cc1cnn2c3c(c(=O)n(-c4ccc(-c5nncn5C)cc4)c12)C[C@@H](C)N(C(=O)c1ccc(Cl)c(C(F)(F)F)c1)C3` (stereo in doubt) [Compound 67a, rac-(11R)-12-[4-chloro-3-(trifluoromethyl)benzoyl]-5-isobutyl-11-methyl-7-[4-(4-methyl-1,2,4-triazol-3-yl)phenyl]-2,3,7,12-tetrazatricyclo[7.4.0.0^2,6]trideca-1(9),3,5-trien-8-one], under 50 nM; to `CC(C)Cc1cnn2c3c(c(=O)n(-c4ccc(-c5nncn5C)cc4)c12)C[C@H](C)N(C(=O)c1ccc(Cl)c(C(F)(F)F)c1)C3` (stereo in doubt) [Compound 67b, rac-(11S)-12-[4-chloro-3-(trifluoromethyl)benzoyl]-5-isobutyl-11-methyl-7-[4-(4-methyl-1,2,4-triazol-3-yl)phenyl]-2,3,7,12-tetrazatricyclo[7.4.0.0^2,6]trideca-1(9),3,5-trien-8-one], 50 to 500 nM. To `CC(C)Cc1cnn2c3c(c(=O)n(-c4ccc(-c5nncn5C)cc4)c12)C[C@@H](C)N(C(=O)c1ccc(Br)c(Cl)c1)C3` (stereo in doubt) [Compound 68a, rac-(11R)-12-(4-bromo-3-chloro-benzoyl)-5-isobutyl-11-methyl-7-[4-(4-methyl-1,2,4-triazol-3-yl)phenyl]-2,3,7,12-tetrazatricyclo[7.4.0.0^2,6]trideca-1(9),3,5-trien-8-one] belongs under 50 nM; to `CC(C)Cc1cnn2c3c(c(=O)n(-c4ccc(-c5nncn5C)cc4)c12)C[C@H](C)N(C(=O)c1ccc(Br)c(Cl)c1)C3` (stereo in doubt) [Compound 68b, rac-(11S)-12-(4-bromo-3-chloro-benzoyl)-5-isobutyl-11-methyl-7-[4-(4-methyl-1,2,4-triazol-3-yl)phenyl]-2,3,7,12-tetrazatricyclo[7.4.0.0^2,6]trideca-1(9),3,5-trien-8-one], 50 to 500 nM; to `CNC(=O)c1cnc(-n2c(=O)c3c(n4ncc(Cc5ccccc5)c24)CN(C(=O)c2ccc(Br)c(C(F)(F)F)c2)[C@H](C)C3)nc1` (stereo in doubt) [Compound 69a, N-methyl-2-[rac-(11R)-5-benzyl-12-[4-bromo-3-(trifluoromethyl)benzoyl]-11-methyl-8-oxo-2,3,7,12-tetrazatricyclo[7.4.0.0^2,6]trideca-1(9),3,5-trien-7-yl]pyrimidine-5-carboxamide], under 50 nM.
